Laboratory results as given in patent publication US9061980B2, “Organic compounds” (NABRIVA THERAPEUTICS, AG, priority 2007, dated 2015).
Converted amounts (≈) assume the structure as drawn. Read-outs that look alike come from different tables or passages of the source.

Tests used:
Type in all cases: cell-based
[1] = test system: Enterococcus faecalis ATCC29212 B4; assay: MIC determination according to CLSI; conditions: Enterococcus faecalis ATCC29212, strain B4
Excerpt: (§1) For example, the compounds of the present invention show antimicrobial, e.g. antibacterial, activity against gram positive bacteria, such as coagulase-positive and coagulase-negative Staphylococci, e.g. Staphylococcus aureus, Styphylococcus epidermis, Staphylococcus haemolyticus, Streptococci, e.g. Streptococcus pyogenes, Streptococcus pneumoniae, Streptococcus agalacticae, Enterococci, e.g. Enterococcus faecium and Moraxellaceae, e.g. Moraxella catarrhalis, Pasteurellaceae, e.g. Haemophilus influenzae, as well as against Mycoplasmactaceae, Chlamydiaceae, e.g. Chlamydia trachomatis, Chlamydia pneumoniae and obligatory anaerobes, e.g. Bacteroides fragilis, Clostridium difficile; in vitro in the Agar Dilution Test or Microdilution Test according to the Clinical and Laboratory Standards Institute (CLSI, former National Committee for Clinical Laboratory Standards (NCCLS) 2006, Document M7-A7 Vol. 26, No. 2: “Methods for dilution Antimicrobial Susceptibility Tests for Bacteria that Grow Aerobically—Seventh Edition, Approved Standard”; and in the in vitro determination of the antibacterial activity against anaerobic bacteria according to National Committee for Clinical Laboratory Standards (NCCLS) VOL. 24, No. 2, M11-A5, Methods for Antimicrobal Susceptibility Testing of Anaerobic Bacteria; Approved Standard; Sixth Edition (2004) and in vivo in the septicaemic mouse model against Staphylococcus aureus.
(§2) The antibacterial activity expressed as minimal inhibitory concentration (MIC) was determined according to the approved standard reference recommendations of CLSI (former NCCLS).

[2] = test system: Enterococcus faecalis ATCC51299 B5; assay: MIC determination according to CLSI; conditions: Enterococcus faecalis ATCC51299, strain B5
Excerpt: as §1, §2

[3] = test system: Escherichia coli ATCC25922 B1; assay: MIC determination according to CLSI; conditions: Escherichia coli ATCC25922, strain B1
Excerpt: as §1, §2

[4] = test system: Moraxella catarrhalis ATCC43618 B407; assay: MIC determination according to CLSI; conditions: Moraxella catarrhalis ATCC43618, strain B407
Excerpt: as §1, §2

[5] = test system: Staphylococcus aureus (MSSA) ATCC10390 B6; assay: MIC determination according to CLSI; conditions: Staphylococcus aureus (MSSA) ATCC10390, strain B6
Excerpt: as §1, §2

[6] = test system: Staphylococcus aureus (MSSA) ATCC29213 B7; assay: MIC determination according to CLSI; conditions: Staphylococcus aureus (MSSA) ATCC29213, strain B7
Excerpt: as §1, §2

[7] = test system: Streptococcus pneumoniae ATCC49619 B11; assay: MIC determination according to CLSI; conditions: Streptococcus pneumoniae ATCC49619, strain B11
Excerpt: as §1, §2

[8] = test system: Staphylococcus aureus, Enterococcus faecalis, Streptococcus pneumoniae, Moraxella catarrhalis and Escherichia coli; assay: Antibacterial activity (MIC) against panel of clinical relevant bacterial pathogens; conditions: for activity against the clinical relevant bacterial pathogens: in vitro, statement in words
Protocol: as §2

Row | MIC ([1]; read-out: MIC) [µg/mL] | MIC ([2]; read-out: MIC) [µg/mL] | MIC ([3]; read-out: MIC) [µg/mL] | MIC ([4]; read-out: MIC) [µg/mL] | MIC ([5]; read-out: MIC) [µg/mL] | MIC ([6]; read-out: MIC) [µg/mL] | MIC ([7]; read-out: MIC) [µg/mL] | factor by which MICs are lower than the MICs of the comparator compounds ([8]; against at least one of the strains shown in Table 1, comparators examples 3, 6, 9, 12, 14 and 17) | Compound | activity against the clinical relevant bacterial pathogens [8] | MIC [1] [µg/mL] | MIC [2] [µg/mL] | MIC [3] [µg/mL] | MIC [4] [µg/mL] | MIC [5] [µg/mL] | MIC [6] [µg/mL] | MIC [7] [µg/mL]
1 | 3.2 (≈ 6.55 µM) | > 25.6 | > 25.6 | ≤ 0.0125 | ≤ 0.0125 | ≤ 0.0125 | 0.04 (≈ 0.0819 µM) | ≥ 2 | C=C[C@]1(C)C[C@@H](OC(=O)CSc2cccc(F)c2)[C@]2(C)C(C)CCC3(CCC(=O)C32)[C@@H](C)[C@@H]1O (stereo partly shown) [Example 1, 14-O-[(3-Fluoro-phenylsulfanyl)-acetyl]-mutilin] | very good activity | – | – | – | – | – | – | –
2 | > 25.6 | > 25.6 | > 25.6 | ≤ 0.0125 | ≤ 0.0125 | ≤ 0.0125 | 0.16 (≈ 0.329 µM) | – | C=C[C@]1(C)C[C@@H](OC(=O)CSc2ccccc2O)[C@]2(C)C(C)CCC3(CCC(=O)C32)[C@@H](C)[C@@H]1O (stereo partly shown) [Example 9, 14-O-[(2-Hydroxy-phenylsulfanyl)-acetyl]-mutilin] | – | – | – | – | – | – | – | –
3 | > 25.6 | > 25.6 | > 25.6 | ≤ 0.0125 | 0.025 (≈ 0.0499 µM) | 0.025 (≈ 0.0499 µM) | 0.04 (≈ 0.0799 µM) | – | C=C[C@]1(C)C[C@@H](OC(=O)CSc2cccc(OC)c2)[C@]2(C)C(C)CCC3(CCC(=O)C32)[C@@H](C)[C@@H]1O (stereo partly shown) [Example 10, 14-O-[(3-Methoxy-phenylsulfanyl)-acetyl]-mutilin] | very good activity | – | – | – | – | – | – | –
4 | > 6.4 | > 6.4 | > 6.4 | 0.0125 (≈ 0.0258 µM) | 0.025 (≈ 0.0516 µM) | 0.05 (≈ 0.103 µM) | 0.16 (≈ 0.33 µM) | – | C=C[C@]1(C)C[C@@H](OC(=O)CSc2cccc(C)c2)[C@]2(C)C(C)CCC3(CCC(=O)C32)[C@@H](C)[C@@H]1O (stereo partly shown) [Example 14, 14-O-[(3-Methyl-phenylsulfanyl)-acetyl]-mutilin] | – | – | – | – | – | – | – | –
5 | > 6.4 | > 6.4 | > 6.4 | 0.0125 (≈ 0.0266 µM) | 0.05 (≈ 0.106 µM) | 0.05 (≈ 0.106 µM) | 0.16 (≈ 0.34 µM) | – | C=C[C@]1(C)C[C@@H](OC(=O)COc2ccccc2O)[C@]2(C)C(C)CCC3(CCC(=O)C32)[C@@H](C)[C@@H]1O (stereo partly shown) [Example 17, 14-O-[(2-Hydroxy-phenoxy)-acetyl]-mutilin] | – | – | – | – | – | – | – | –

Continued, compound first:

Row | Compound | MIC ([1]; read-out: MIC) [µg/mL] | MIC ([2]; read-out: MIC) [µg/mL] | MIC ([3]; read-out: MIC) [µg/mL] | MIC ([4]; read-out: MIC) [µg/mL] | MIC ([5]; read-out: MIC) [µg/mL] | MIC ([6]; read-out: MIC) [µg/mL] | MIC ([7]; read-out: MIC) [µg/mL] | factor by which MICs are lower than the MICs of the comparator compounds ([8]; against at least one of the strains shown in Table 1, comparators examples 3, 6, 9, 12, 14 and 17) | activity against the clinical relevant bacterial pathogens [8] | MIC [1] [µg/mL] | MIC [2] [µg/mL] | MIC [3] [µg/mL] | MIC [4] [µg/mL] | MIC [5] [µg/mL] | MIC [6] [µg/mL] | MIC [7] [µg/mL]
6 | C=C[C@]1(C)C[C@@H](OC(=O)CSc2ccccc2F)[C@]2(C)C(C)CCC3(CCC(=O)C32)[C@@H](C)[C@@H]1O (stereo partly shown) [Example 3, 14-O-[(2-Fluoro-phenylsulfanyl)-acetyl]-mutilin] | > 25.6 | > 25.6 | > 25.6 | 0.025 (≈ 0.0512 µM) | 0.05 (≈ 0.102 µM) | 0.05 (≈ 0.102 µM) | 0.16 (≈ 0.327 µM) | – | – | – | – | – | – | – | – | –
7 | C=C[C@]1(C)C[C@@H](OC(=O)CSc2ccc(F)cc2F)[C@]2(C)C(C)CCC3(CCC(=O)C32)[C@@H](C)[C@@H]1O (stereo partly shown) [Example 6, 14-O-[(2,4-Difluoro-phenylsulfanyl)-acetyl]-mutilin] | > 25.6 | > 25.6 | > 25.6 | 0.05 (≈ 0.0987 µM) | 0.1 (≈ 0.197 µM) | 0.1 (≈ 0.197 µM) | 0.32 (≈ 0.632 µM) | – | – | – | – | – | – | – | – | –
8 | C=C[C@]1(C)C[C@@H](OC(=O)CSc2cccc(O)c2)[C@]2(C)C(C)CCC3(CCC(=O)C32)[C@@H](C)[C@@H]1O (stereo partly shown) [Example 7, 14-O-[(3-Hydroxy-phenylsulfanyl)-acetyl]-mutilin] | > 25.6 | > 25.6 | > 25.6 | ≤ 0.0125 | ≤ 0.0125 | ≤ 0.0125 | 0.02 (≈ 0.0411 µM) | – | very good activity | – | – | – | – | – | – | –
9 | C=C[C@]1(C)C[C@@H](OC(=O)CSc2ccccc2OC)[C@]2(C)C(C)CCC3(CCC(=O)C32)[C@@H](C)[C@@H]1O (stereo partly shown) [Example 12, 14-O-[(2-Methoxy-phenylsulfanyl)-acetyl]mutilin] | > 25.6 | > 25.6 | > 25.6 | 0.1 (≈ 0.2 µM) | 0.2 (≈ 0.399 µM) | 0.2 (≈ 0.399 µM) | 0.16 (≈ 0.32 µM) | – | – | – | – | – | – | – | – | –
10 | C=C[C@]1(C)C[C@@H](OC(=O)COc2cccc(O)c2)[C@]2(C)C(C)CCC3(CCC(=O)C32)[C@@H](C)[C@@H]1O (stereo partly shown) [Example 15, 14-O-[(3-Hydroxy-phenoxy)-acetyl]-mutilin] | 12.8 (≈ 27.2 µM) | 25.6 (≈ 54.4 µM) | > 25.6 | ≤ 0.0125 | 0.025 (≈ 0.0531 µM) | 0.025 (≈ 0.0531 µM) | 0.04 (≈ 0.085 µM) | – | very good activity | – | – | – | – | – | – | –
11 | C=C[C@]1(C)C[C@@H](OC(=O)COc2cccc(C)c2)[C@]2(C)[C@H](C)CC[C@]3(CCC(=O)[C@H]32)[C@@H](C)[C@@H]1O [Example 19, 14-O-[(3-Methyl-phenoxy)-acetyl]-mutilin] | – | – | – | – | – | – | – | – | – | >6.4 | >6.4 | >6.4 | 0.0125 (≈ 0.0267 µM) | 0.05 (≈ 0.107 µM) | 0.05 (≈ 0.107 µM) | 0.64 (≈ 1.37 µM)
